The results in this text go back to the supplement of paper PMC10920090.

SMILES strings stand for the structures.

The test system of assay [1] is MDA-MB-231. Briefly: drug sensitivity score (DSS), cytotoxicity CellTox Green; higher = more cytotoxic; extreme values may be limits of the assay. The note with it: 72 h.
The subject of assay [2] is MDA-MB-231. The experiment in a line: drug sensitivity score (DSS), cell viability CellTiter-Glo; higher = more sensitive; extreme values may be limits of the assay. The note with it: 72 h.
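Wherever drug sensitivity score (DSS), cytotoxicity CellTox Green is given: DSS summarises each dose–response curve by combining IC50, EC50, maximal inhibition and efficacy across drug concentrations.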

Consider `C=CCN(/C=C1/C(=O)O[C@H](COC)[C@@]2(C)C1=C(O)C(=O)C1=C2[C@H](OC(C)=O)C[C@]2(C)C(=O)CC[C@@H]12)CC=C` [Sonolisib], for which the drug sensitivity score in the assay on MDA-MB-231 [1] (shRNA: shPPFIA1_1), with MDA-MB-231 [1] (shRNA: shScramble), with MDA-MB-231 [2] (shRNA: shPPFIA1_1) and in the assay with MDA-MB-231 [2] (shRNA: shScramble) was 0 DSS in each case.

Take `O=c1[nH]c(C2CCCN2)nc2c1oc1ccc(Cl)cc12` (configuration not stated): the drug sensitivity score in the assay with MDA-MB-231 [1] (shRNA: shPPFIA1_1), in the assay on MDA-MB-231 [1] (shRNA: shScramble), in the assay with MDA-MB-231 [2] (shRNA: shPPFIA1_1) and in the assay on MDA-MB-231 [2] (shRNA: shScramble) was 0 DSS throughout.

Take `CS(=O)(=O)N1CCc2c(-c3cnc(N)nc3)nc(N3CCOCC3)nc21`: the drug sensitivity score in the assay on MDA-MB-231 [1] (shRNA: shPPFIA1_1) was 0 DSS; in the assay with MDA-MB-231 [1] (shRNA: shScramble), 0 DSS; in the assay with MDA-MB-231 [2] (shRNA: shPPFIA1_1), 0 DSS; with MDA-MB-231 [2] (shRNA: shScramble) it was 7.7 DSS.

As to `Cc1cccc(-c2nn3c(c2-c2ccnc4ccc(C(N)=O)cc24)CCC3)n1` [Galunisertib], the drug sensitivity score in the assay with MDA-MB-231 [1] (shRNA: shPPFIA1_1), with MDA-MB-231 [1] (shRNA: shScramble), in the assay on MDA-MB-231 [2] (shRNA: shPPFIA1_1) and with MDA-MB-231 [2] (shRNA: shScramble) was 0 DSS throughout.

With `CC(C)(C)c1cc(NC(=O)Nc2ccc(-c3cn4c(n3)sc3cc(OCCN5CCOCC5)ccc34)cc2)no1` [Quizartinib], the drug sensitivity score in the assay with MDA-MB-231 [1] (shRNA: shPPFIA1_1), in the assay with MDA-MB-231 [1] (shRNA: shScramble), in the assay with MDA-MB-231 [2] (shRNA: shPPFIA1_1) and in the assay on MDA-MB-231 [2] (shRNA: shScramble) was 0 DSS each time.

Take `C=CC(=O)N1CCC[C@@H](n2nc(-c3ccc(Oc4ccccc4)cc3)c3c(N)ncnc32)C1` [Ibrutinib]: the drug sensitivity score in the assay with MDA-MB-231 [1] (shRNA: shPPFIA1_1), in the assay on MDA-MB-231 [1] (shRNA: shScramble), in the assay with MDA-MB-231 [2] (shRNA: shPPFIA1_1) and in the assay with MDA-MB-231 [2] (shRNA: shScramble) was 0 DSS in each case.

Regarding `COc1ccc2c(OCc3nnc4ccc(-c5ccccc5)nn34)ccnc2c1` [AMG-208], the drug sensitivity score stood at 0 DSS in the assay with MDA-MB-231 [1] (shRNA: shPPFIA1_1), 0 DSS with MDA-MB-231 [1] (shRNA: shScramble), 1.9 DSS in the assay on MDA-MB-231 [2] (shRNA: shPPFIA1_1) and 8.6 DSS with MDA-MB-231 [2] (shRNA: shScramble).

In the case of `CCc1cnn2c(NCc3ccc[n+]([O-])c3)cc(N3CCCC[C@H]3CCO)nc12` [Dinaciclib], the drug sensitivity score with MDA-MB-231 [1] (shRNA: shPPFIA1_1) stood at 15.4 DSS; in the assay with MDA-MB-231 [1] (shRNA: shScramble), 8.8 DSS; in the assay on MDA-MB-231 [2] (shRNA: shPPFIA1_1), 13.8 DSS; in the assay with MDA-MB-231 [2] (shRNA: shScramble), 18.7 DSS.

On to `CN(C)C(=N)NC(=N)N` [Metformin], for which the drug sensitivity score in the assay on MDA-MB-231 [1] (shRNA: shPPFIA1_1), in the assay with MDA-MB-231 [1] (shRNA: shScramble), in the assay on MDA-MB-231 [2] (shRNA: shPPFIA1_1) and with MDA-MB-231 [2] (shRNA: shScramble) was 0 DSS throughout.

Turning to `CNc1nc(-c2ccc3c(N)n[nH]c3c2)cc(N2C[C@@H](C(=O)NC3CCCCC3)CC[C@H]2C)n1`, the drug sensitivity score in the assay with MDA-MB-231 [1] (shRNA: shPPFIA1_1) stood at 0 DSS; with MDA-MB-231 [1] (shRNA: shScramble), 0 DSS; in the assay with MDA-MB-231 [2] (shRNA: shPPFIA1_1) it was 0 DSS; with MDA-MB-231 [2] (shRNA: shScramble), 3.6 DSS.

On to `CCn1c(C(=O)N(C2CC2)C2CC2)cc2c3c(ncn3C)c(Nc3cc(C)n(C)n3)nc21`, for which the drug sensitivity score with MDA-MB-231 [1] (shRNA: shPPFIA1_1), with MDA-MB-231 [1] (shRNA: shScramble), with MDA-MB-231 [2] (shRNA: shPPFIA1_1) and with MDA-MB-231 [2] (shRNA: shScramble) was 0 DSS throughout.

As for `NCCNc1ccc(NCCN)c2c1C(=O)c1ccncc1C2=O` [Pixantrone], the drug sensitivity score with MDA-MB-231 [1] (shRNA: shPPFIA1_1) stood at 0 DSS; with MDA-MB-231 [1] (shRNA: shScramble), 0 DSS; with MDA-MB-231 [2] (shRNA: shPPFIA1_1), 3.1 DSS; in the assay with MDA-MB-231 [2] (shRNA: shScramble), 0.4 DSS.

In the case of `COc1c(OCCCN2CCOCC2)ccc2c1N=C(NC(=O)c1cnc(N)nc1)N1CCN=C21` [Copanlisib], the drug sensitivity score was 10.2 DSS with MDA-MB-231 [1] (shRNA: shPPFIA1_1), 0 DSS in the assay on MDA-MB-231 [1] (shRNA: shScramble), 0 DSS with MDA-MB-231 [2] (shRNA: shPPFIA1_1) and 6.3 DSS in the assay on MDA-MB-231 [2] (shRNA: shScramble).

`Cc1cccc(CC(=O)N2CCc3c2ccc(-c2cn(C)c4ncnc(N)c24)c3F)n1`: the drug sensitivity score was found to be 15 DSS with MDA-MB-231 [1] (shRNA: shPPFIA1_1), 0 DSS in the assay on MDA-MB-231 [1] (shRNA: shScramble), 0 DSS in the assay with MDA-MB-231 [2] (shRNA: shPPFIA1_1) and 0.3 DSS in the assay on MDA-MB-231 [2] (shRNA: shScramble).

Regarding `CC1CCC(n2c3cnccc3c3cnc(Nc4ccc5c(n4)CCN(C(=O)CO)C5)nc32)CC1` (configuration not stated) [AMG-925], the drug sensitivity score in the assay on MDA-MB-231 [1] (shRNA: shPPFIA1_1), in the assay on MDA-MB-231 [1] (shRNA: shScramble), with MDA-MB-231 [2] (shRNA: shPPFIA1_1) and with MDA-MB-231 [2] (shRNA: shScramble) was 0 DSS in each case.

Regarding `CS(=O)(=O)c1ccc(C(=O)Nc2ccc(Cl)c(-c3ccccn3)c2)c(Cl)c1` [Vismodegib], the drug sensitivity score turned out to be 2.2 DSS in the assay on MDA-MB-231 [1] (shRNA: shPPFIA1_1), 0 DSS in the assay on MDA-MB-231 [1] (shRNA: shScramble), 0 DSS in the assay on MDA-MB-231 [2] (shRNA: shPPFIA1_1) and 0 DSS in the assay with MDA-MB-231 [2] (shRNA: shScramble).

Regarding `CCc1nc(-c2cccc(C)c2)c(-c2ccnc(NC(=O)c3ccccc3)c2)s1` [TAK-715], the drug sensitivity score was 0.3 DSS in the assay on MDA-MB-231 [1] (shRNA: shPPFIA1_1), 0 DSS with MDA-MB-231 [1] (shRNA: shScramble), 0 DSS in the assay on MDA-MB-231 [2] (shRNA: shPPFIA1_1) and 0.8 DSS in the assay with MDA-MB-231 [2] (shRNA: shScramble).

In the case of `O=C(CCCCCCC(=O)Nc1ccccc1)NO` [Vorinostat], the drug sensitivity score in the assay on MDA-MB-231 [1] (shRNA: shPPFIA1_1) turned out to be 6.9 DSS; in the assay on MDA-MB-231 [1] (shRNA: shScramble), 2.5 DSS; in the assay on MDA-MB-231 [2] (shRNA: shPPFIA1_1), 2.4 DSS; with MDA-MB-231 [2] (shRNA: shScramble) it was 6.6 DSS.

For `Cc1ccc(Nc2nccc(N(C)c3ccc4c(C)n(C)nc4c3)n2)cc1S(N)(=O)=O` [Pazopanib], the drug sensitivity score was 0 DSS in the assay on MDA-MB-231 [1] (shRNA: shPPFIA1_1), 0 DSS in the assay on MDA-MB-231 [1] (shRNA: shScramble), 2.7 DSS in the assay with MDA-MB-231 [2] (shRNA: shPPFIA1_1) and 7.9 DSS in the assay with MDA-MB-231 [2] (shRNA: shScramble).

For the molecule `Nc1nc2[nH]cc(CCc3ccc(C(=O)N[C@@H](CCC(=O)O)C(=O)O)cc3)c2c(=O)[nH]1` [Pemetrexed], the drug sensitivity score was determined as 0 DSS with MDA-MB-231 [1] (shRNA: shPPFIA1_1), 0 DSS in the assay with MDA-MB-231 [1] (shRNA: shScramble), 5.6 DSS with MDA-MB-231 [2] (shRNA: shPPFIA1_1) and 8.3 DSS in the assay with MDA-MB-231 [2] (shRNA: shScramble).

For the molecule `Clc1ccc(C(c2ccccc2Cl)C(Cl)Cl)cc1` (configuration not stated) [Mitotane], the drug sensitivity score in the assay on MDA-MB-231 [1] (shRNA: shPPFIA1_1), in the assay on MDA-MB-231 [1] (shRNA: shScramble), with MDA-MB-231 [2] (shRNA: shPPFIA1_1) and in the assay with MDA-MB-231 [2] (shRNA: shScramble) was 0 DSS each time.

Turning to `CO[C@@H](C(=O)N1Cc2[nH]nc(NC(=O)c3ccc(N4CCN(C)CC4)cc3)c2C1)c1ccccc1` [Danusertib], the drug sensitivity score was 0 DSS in the assay with MDA-MB-231 [1] (shRNA: shPPFIA1_1), 0.2 DSS in the assay with MDA-MB-231 [1] (shRNA: shScramble), 0 DSS with MDA-MB-231 [2] (shRNA: shPPFIA1_1) and 0 DSS with MDA-MB-231 [2] (shRNA: shScramble).

On to `NC(=O)NO` [Hydroxyurea], for which the drug sensitivity score in the assay on MDA-MB-231 [1] (shRNA: shPPFIA1_1), in the assay on MDA-MB-231 [1] (shRNA: shScramble), with MDA-MB-231 [2] (shRNA: shPPFIA1_1) and with MDA-MB-231 [2] (shRNA: shScramble) was 0 DSS each time.

Regarding `COC(=O)N[C@@H](C)CNc1nccc(-c2cn(C(C)C)nc2-c2cc(Cl)cc(NS(C)(=O)=O)c2F)n1` [Encorafenib], the drug sensitivity score in the assay with MDA-MB-231 [1] (shRNA: shPPFIA1_1) amounted to 0 DSS; in the assay with MDA-MB-231 [1] (shRNA: shScramble) it was 0 DSS; in the assay with MDA-MB-231 [2] (shRNA: shPPFIA1_1), 0 DSS; in the assay with MDA-MB-231 [2] (shRNA: shScramble), 1.3 DSS.

Turning to `O=C(/C=C\n1cnc(-c2cc(C(F)(F)F)cc(C(F)(F)F)c2)n1)NNc1cnccn1` [Selinexor], the drug sensitivity score was found to be 5.8 DSS in the assay with MDA-MB-231 [1] (shRNA: shPPFIA1_1), 8.1 DSS in the assay with MDA-MB-231 [1] (shRNA: shScramble), 8.6 DSS in the assay on MDA-MB-231 [2] (shRNA: shPPFIA1_1) and 13.5 DSS in the assay on MDA-MB-231 [2] (shRNA: shScramble).

In the case of `Cc1sc2c(c1C)C(c1ccc(Cl)cc1)=N[C@@H](CC(=O)Nc1ccc(O)cc1)c1nnc(C)n1-2` [OTX015], the drug sensitivity score with MDA-MB-231 [1] (shRNA: shPPFIA1_1) amounted to 0 DSS; in the assay on MDA-MB-231 [1] (shRNA: shScramble), 0 DSS; in the assay with MDA-MB-231 [2] (shRNA: shPPFIA1_1) it was 0 DSS; in the assay with MDA-MB-231 [2] (shRNA: shScramble), 10.2 DSS.

For `CS(=O)(=O)CCNCc1ccc(-c2ccc3ncnc(Nc4ccc(OCc5cccc(F)c5)c(Cl)c4)c3c2)o1` [Lapatinib], the drug sensitivity score with MDA-MB-231 [1] (shRNA: shPPFIA1_1), in the assay on MDA-MB-231 [1] (shRNA: shScramble), in the assay with MDA-MB-231 [2] (shRNA: shPPFIA1_1) and in the assay with MDA-MB-231 [2] (shRNA: shScramble) was 0 DSS each time.

Take `CN1CCC(CNc2ccc3ncc(-c4cccc(OC(F)(F)F)c4)n3n2)CC1` [SGI-1776]: the drug sensitivity score in the assay with MDA-MB-231 [1] (shRNA: shPPFIA1_1) was 4.9 DSS; in the assay with MDA-MB-231 [1] (shRNA: shScramble), 4.7 DSS; in the assay with MDA-MB-231 [2] (shRNA: shPPFIA1_1), 9 DSS; with MDA-MB-231 [2] (shRNA: shScramble), 9 DSS.
